Results taken from US20060039879A1, “Use of particular polyols for preventing the hair from breaking, composition comprising them and cosmetic hair treatment process” (L'OREAL, priority 2004, published 2006).

Legend:
[1] = Level of premature breakage of hairs in a tensile test (Zwick tensile testing machine); details: 5% by weight compound in water; 30 natural African hairs immersed 3 days at 40° C., no final rinsing; hairs 30 mm, drawn at 10 mm/minute; untreated control R = 0.27
Protocol: The hair used for the following tests was left in a glove box at 25° C. and 45% relative humidity for about 24 hours.
A composition was prepared by mixing together 5% by weight of the compound of Example 1 and 95% by weight of water relative to the total weight of the composition.
30 natural African hairs were then treated with this composition: the hairs were immersed for 3 days at 40° C., without final rinsing, and their level of premature breakage was then compared with that of a batch of untreated natural control hairs.
Mechanical tests were performed using a Zwick tensile testing machine on the hairs 30 mm long. The hairs were drawn at a speed of 10 mm/minute.
The level of premature breakage of the treated African hair, on the one hand, and of the untreated African hair, on the other hand, was evaluated as follows: R=1—(number of hairs showing breakage under tension in the hardening zone/N) • N being the total number of hairs tested.

[2] = treatment with aqueous solutions of the humectant; breakage for small elongations; cited from earlier work

SMILES: O=C(NCCO)NCCO [Example 1, N,N′-bis(2-hydroxyethyl)urea]
- Level of premature breakage R, first test [1]: R = 0.17
- Level of premature breakage R, second test [1]: R = 0.10

SMILES: OCC(O)CO [glycerol]
- Improving the mechanical strength of Negroid hair and reducing its level of premature breakage [2]: effective
